Source: US12558396B2, “Use of cyclo(His-Pro) (CHP) for preventing, alleviating or treating peritoneal fibrosis” (NOVMETAPHARMA CO., LTD., priority 2019, dated 2026)

Legend:
Assay type in all cases: in vivo, C57BL/6 male mice
[1] = tested on: animal model of peritoneal fibrosis; assay: Peritoneal tissue staining (PAS, Masson's trichrome, Sirius red) in animal model of peritoneal fibrosis; conditions: FIG. 1
Method: (§1) In order to create an animal model of peritoneal fibrosis, 7-week-old C57BL/6 male mice were purchased from Koatech and bred under constant conditions (temperature: 22±2° C., relative humidity: 55±10%, circadian cycle: 12 hours). Five animals were grouped into one group, and water and food were freely supplied in cages, and they were used in the experiment after acclimatization for one week before the experiment. After the acclimatization period, 0.1% chlorohexidine was administered by intraperitoneal injection every 3 days for 30 days to establish an animal model of peritoneal fibrosis. […] Group 3 was orally administrated with CHP at a concentration of 17.5 mg/kg (CG-PD+CHP(17.5)), and Group 4 was orally administered with CHP at a concentration of 35 mg/kg (CG-PD+CHP(35)) through 1 mL syringes every day for 30 days.
Among the experimental animals designed in Example 1-1, the peritoneum was obtained from the mice of the groups administered with the drug and 0.1% chlorohexidine for 30 days from the xyphoid process to the upper part of the pelvic cavity, and then sacrificed with whole blood. From the skin to the parietal peritoneum, the tissues of the left abdomen were excised in a size of 0.5×1.0 cm, and some were fixed in 10% formalin for immunostaining and then embedded in paraffin. The tissue sections were cut to a thickness of 4 μm and evaluated by performing Periodic acid-Schiff (PAS) staining, Masson's trichrome (MT) staining and Sirius Red staining to check the degree of peritoneal fibrosis. After observation with an optical microscope, photographs were taken (Olympus BX-50, Olympus Optical, Tokyo, Japan).

[2] = tested on: animal model of peritoneal fibrosis; assay: Immunohistochemical staining of ICAM-1 and F4/80 in peritoneum of animal model of peritoneal fibrosis; conditions: CHP 17.5 and 35 mg/kg orally, 30 days, vs CG-PD, FIG. 2
Method: as §1
Peritoneal tissues were extracted from the mice of each group of Example 1-1, fixed in 10% formalin for immunostaining and then embedded in paraffin. Using the streptavidin biotin peroxidase (Vector Laboratories) method, these were reacted with each of the anti-ICAM1 antibody and the […] at 4° C. for 16 hours, followed by color development with diaminobenzidine tetrahydrochloride (DAB) to confirm the expressions.

[3] = tested on: animal model of peritoneal fibrosis; assay: Western blot of collagen 1, αSMA, p16 and p21 in peritoneal tissue of animal model of peritoneal fibrosis; conditions: Western blot corrected by GAPDH, CHP 17.5 and 35 mg/kg orally, vs CG-PD, FIGS. 3a
Method: as §1
Isoflurane which is necessary for anesthesia and dissection of mice in each group of Example 1-1 was purchased from Hana Pharm, and VetEquip's RC2 Rodent Circuit Controller Anesthesia System was prepared. Phosphate-buffered saline (PBS) was purchased from Hyclone. In order to isolate the peritoneal tissue of the mice, the mice were anesthetized by respiratory anesthesia with 3 to 3.5% isoflurane. After blood was drawn from the heart of anesthetized mice, the peritoneal tissue was immediately removed, washed with PBS, and 50 mg of the peritoneal tissue was cut out and placed in 500 μL of RIPA buffer containing protease and phosphatase inhibitors, and it was crushed using IKA's T10 homogenizer. After standing on ice for 15 minutes, centrifugation was performed at 15000 rpm at 4° C. The supernatant was collected and the protein concentration was measured by BCA quantitation, and in the same amount of the samples, the protein was separated using the Bolt™ protein gel electrophoresis system, and then transferred to a nitrocellulose membrane. The membrane was blocked with 5% skim milk at room temperature for 1 hour, and then reacted with primary antibodies collagen 1, αSMA, NRF2, p16, p21 and GAPDH antibodies overnight at 4° C. After washing 3 times for 10 minutes with TBST, the reaction was performed with the secondary antibodies at room temperature for 1 hour. After washing 3 times for 10 minutes with TBST, the expression level was measured by reacting with ECL. The size of the appearing band was quantified using the ImageJ program, and each band size value was divided by the GAPDH band size value and corrected. Statistical significance was analyzed using Student's t-test statistical method with the peritoneal fibrosis control group (CG-PD) (*p<0.05, […], ***p<0.0005).

[4] = tested on: animal model of peritoneal fibrosis; assay: Real-time PCR of collagen 1, p21 and E-cadherin in peritoneal tissue of animal model of peritoneal fibrosis; conditions: real-time PCR corrected by GAPDH, CHP 17.5 and 35 mg/kg orally, vs CG-PD
Method: as §1
Isoflurane which is necessary for anesthesia and dissection of mice in each group of Example 1-1 was purchased from Hana Pharma, and VetEquip's RC2 Rodent Circuit Controller Anesthesia System was prepared. Phosphate-buffered saline (PBS) was purchased from Hyclone. In order to isolate the peritoneal tissue of the mice, the mice were anesthetized by respiratory anesthesia with 3 to 3.5% isoflurane. After blood was drawn from the heart of the anesthetized mice, the peritoneal tissue was immediately removed, 50 mg of the peritoneum was cut, 500 μL of NucleoZOL was added, and then it was crushed using IKA's T10 homogenizer. Subsequently, RNA was extracted according to NucleoZOL's total RNA isolation protocol, and cDNA was synthesized from 1 μg of RNA by reverse transcription polymerase chain reaction using the iScript cDNA synthesis kit. The synthesized cDNA was analyzed by real-time PCR with iQ SYBR Green Supermix using forward/reverse primer sets corresponding to each gene. The expression value of each gene was corrected by dividing by the expression value of GAPDH, a housekeeping gene. Statistical significance was analyzed using Student's t-test statistical method with the peritoneal fibrosis control group (CG-PD) (*p<0.05, […], ***p<0.0005).

`O=C1N[C@@H](Cc2cnc[nH]2)C(=O)N2CCC[C@@H]12` [CHP, cyclo(His-Pro)] was tested, and the “thickened peritoneal layer (MT staining)” value ([1]; CHP 35 mg/kg administration group compared to 17.5 mg/kg administration group, oral, daily, 30 days) was “significantly reduced”, the “deposition of immune cells (PAS staining)” value ([1]; CHP 17.5 and 35 mg/kg orally every day for 30 days, 0.1% chlorohexidine i.p. model, vs fibrosis control group (CG-PD)) was “significantly reduced in a concentration-dependent manner” and the “accumulation of extracellular matrix (ECM) collagen (Sirius red staining)” value ([1]; CHP 17.5 and 35 mg/kg orally every day for 30 days) was “significantly reduced in a concentration-dependent manner”. The “expression level of ICAM-1 (IHC)” value [2] was “decreased”, the “infiltration of immune cells (f4/80-positive cells, IHC)” value [2] was “rapidly decreased” and the “extracellular matrix collagen (collagen 1) protein expression” value ([3]; 3b) was “statistically significantly decreased”. The α-SMA protein expression ([3]; 3c) was “statistically significantly decreased”, the p16 protein expression ([3]; 3e) was “significantly reduced” and the p21 protein expression ([3]; 3d) was “significantly reduced”. The “mRNA expression of extracellular matrix collagen 1” value ([4]; FIG. 4a) was “decreased”, the p21 gene expression ([4]; FIG. 4b) was “significantly reduced” and the “expression level of E-cadherin (gene)” value ([4]; FIG. 4c) was “significantly increased”.
